Data on five substances can be found in US20110143948A1, “MOLECULAR SIGNATURES AND BIOMARKERS ASSOCIATED WITH MELANOMA AND METHODS OF USE THEREOF” (priority 2008, published 2011).

The series relates to ncRNAs (SEQ ID NO 28-89). As to the kind of experiment: ncRNA arrays of melanocytes, keratinocytes, normal skin, melanoma cell lines and patient samples. The settings on record: for ncRNA array expression, patient 2: melanoma patient 2 sample compared to normal skin; for ncRNA array expression, patient 3: melanoma patient 3 sample compared to normal skin; for ncRNA array expression, patient 4: melanoma patient 4 sample compared to normal skin; for ncRNA array expression, patient 5: melanoma patient 5 sample compared to normal skin; for ncRNA array expression, patient 6: melanoma patient 6 sample compared to normal skin; for ncRNA array expression, patient 7: melanoma patient 7 sample compared to normal skin; for ncRNA array expression, patient 8: melanoma patient 8 sample compared to normal skin; for ncRNA array expression, patient 9: melanoma patient 9 sample compared to normal skin; for ncRNA array expression, patient 10: melanoma patient 10 sample compared to normal skin; for ncRNA array expression, patient 19: melanoma patient 19 sample compared to normal skin; for ncRNA array expression, patient 20: melanoma patient 20 sample compared to normal skin; for ncRNA array expression, patient 21: melanoma patient 21 sample compared to normal skin; for ncRNA array expression, patient 22: melanoma patient 22 sample compared to normal skin; for ncRNA array expression, patient 23: melanoma patient 23 sample compared to normal skin; for ncRNA array expression, patient 24: melanoma patient 24 sample compared to normal skin; for ncRNA array expression, patient 25: melanoma patient 25 sample compared to normal skin; for ncRNA array expression, patient 26: melanoma patient 26 sample compared to normal skin; for ncRNA array expression, patient 27: melanoma patient 27 sample compared to normal skin; for ncRNA array expression, patient 28: melanoma patient 28 sample compared to normal skin; for ncRNA array expression, patient 29: melanoma patient 29 sample compared to normal skin; for ncRNA array expression, patient 30: melanoma patient 30 sample compared to normal skin. Further details: species or system human. The protocol:
An ncRNA array platform that contains over 10,000 putative (>200 nt) ncRNAs including most of the known ncRNAs in mouse and human was conducted to evaluate ncRNAs within melanoma. Lack of coding potential was estimated by an algorithm that scores various characteristics of protein-coding genes, including open reading frame length, synonymous/non-synonymous base substitution rates and similarity to known proteins. These arrays provide the first generation of tools designed to analyze the dynamic expression of a large subset of ncRNAs in human and mouse and to identify candidate genes for more detailed functional analysis. In addition to the ncRNA content, probes targeting mRNA content from RefSeq are also included, allowing discovery of coordinated expression with associated protein-coding genes. The result of these assays is a list of ncRNA genes (i.e. SEQ ID NO 28-89) and maps of their sequence boundaries. We have profiled total RNA isolated from melanocytes, keratinocytes, normal human skin, melanoma cell lines and melanoma patient samples to identify differentially expressed ncRNAs in cell lines and tissues. ncRNAs expression in all tested samples were compared to either melanocytes or normal skin. We have identified a group of ncRNAs that are specific for (a) melanocytes (b) Keratinocytes (c) Melanoma cell lines (d) Melanoma patients. […] Probe DNA sequences for this array include: AF086032 (SEQ ID NO 107) […] BC071821 (SEQ ID NO 108) […] C AK130193 (SEQ ID NO 109) […] AL109719 (SEQ ID NO 110) […] AF085888 (SEQ ID NO 111) […] T BC033879 (SEQ ID NO 112) […] AA AK024556 (SEQ ID NO 113) […] Probe nomenclature is standard genebank IDs given by NCBI and other organizations.
Keratinocytes specific signatures were subtracted and resultant ncRNAs were validated by qRT-PCR and Northern blots. Results point out the presence of a group of melanoma specific ncRNAs (i.e. SEQ ID NO 28-89).

“SEQ ID NO 41 (CTCGTAACACTGGGAAAACTGCATACAATATTTAGAAGGAACACTAATACAGCAGAATCT; listed as DNA, chemistry not given here; listed as Homo sapiens)”: the “ncRNA array expression, patient 2” value was −2.529; the “ncRNA array expression, patient 3” value was −2.702; the “ncRNA array expression, patient 4” value was −2.655; the “ncRNA array expression, patient 5” value is on record as −2.566. Also, the “ncRNA array expression, patient 6” value is on record as −2.676; the “ncRNA array expression, patient 7” value was −2.596; the “ncRNA array expression, patient 8” value was −2.699; the “ncRNA array expression, patient 9” value is recorded as −2.456. For the same substance, the “ncRNA array expression, patient 10” value is −2.262; the “ncRNA array expression, patient 19” value is reported as −0.5732; the “ncRNA array expression, patient 20” value is −2.545; the “ncRNA array expression, patient 21” value is −2.574. For the same substance, the “ncRNA array expression, patient 22” value was −2.212; the “ncRNA array expression, patient 23” value is −1.1449; the “ncRNA array expression, patient 24” value is given as −2.6637; the “ncRNA array expression, patient 25” value is −2.4383. Besides, the “ncRNA array expression, patient 26” value was −2.458; the “ncRNA array expression, patient 27” value was −2.204; the “ncRNA array expression, patient 28” value was −2.5405; the “ncRNA array expression, patient 29” value is on record as −2.614. The “ncRNA array expression, patient 30” value is on record as 0.7101.

Take “SEQ ID NO 80 (CACACAGCCCAGTCTGCCTGTGATGGTAATATAAATCAAACCAGGGACCCAAGAGCCCAG; listed as DNA, chemistry not given here; listed as Homo sapiens)”: the “ncRNA array expression, patient 2” value was −1.594; the “ncRNA array expression, patient 3” value is −1.487; the “ncRNA array expression, patient 4” value is −1.4489; the “ncRNA array expression, patient 5” value is on record as −1.208. The “ncRNA array expression, patient 6” value is reported as −0.982; the “ncRNA array expression, patient 7” value is on record as −1.213; the “ncRNA array expression, patient 8” value was −1.338; the “ncRNA array expression, patient 9” value is −1.383. The “ncRNA array expression, patient 10” value is given as −1.815; the “ncRNA array expression, patient 19” value was −1.234; the “ncRNA array expression, patient 20” value is −2.056; the “ncRNA array expression, patient 21” value is on record as −1.5287. For the same substance, the “ncRNA array expression, patient 22” value is given as −0.7073; the “ncRNA array expression, patient 23” value is −0.1143; the “ncRNA array expression, patient 24” value is −1.175; the “ncRNA array expression, patient 25” value is reported as −1.992. Moreover, the “ncRNA array expression, patient 26” value is recorded as −1.983; the “ncRNA array expression, patient 27” value is −1.665; the “ncRNA array expression, patient 28” value is reported as −1.4589; the “ncRNA array expression, patient 29” value is reported as −1.489. For the same substance, the “ncRNA array expression, patient 30” value was 0.1296.

Turning to “SEQ ID NO 59 (TGTGCAGCAGTATCAAAGGTCCTTAAATTCTCAACAATGAAGGAAAAACAAAAACCCATT; listed as DNA, chemistry not given here; listed as Homo sapiens)”, the “ncRNA array expression, patient 2” value was −0.9339; the “ncRNA array expression, patient 3” value is on record as −1.02; the “ncRNA array expression, patient 4” value was −1.168; the “ncRNA array expression, patient 5” value was −1.255. Besides, the “ncRNA array expression, patient 6” value is −1.212; the “ncRNA array expression, patient 7” value is reported as −0.9325; the “ncRNA array expression, patient 8” value is −0.9937; the “ncRNA array expression, patient 9” value was −1.258. For the same substance, the “ncRNA array expression, patient 10” value was −0.9688; the “ncRNA array expression, patient 19” value is reported as −1.202; the “ncRNA array expression, patient 20” value is −1.14; the “ncRNA array expression, patient 21” value was −1.263. Moreover, the “ncRNA array expression, patient 22” value is given as −0.5383; the “ncRNA array expression, patient 23” value is listed as −1.165; the “ncRNA array expression, patient 24” value is recorded as −1.154; the “ncRNA array expression, patient 25” value is listed as −0.9916. The “ncRNA array expression, patient 26” value is −0.8776; the “ncRNA array expression, patient 27” value is −1.161; the “ncRNA array expression, patient 28” value is recorded as −1.232; the “ncRNA array expression, patient 29” value is −1.077. Moreover, the “ncRNA array expression, patient 30” value is −1.04.

As to “SEQ ID NO 55 (CCTCTCCCCTTCTTGCAAAAAATATTCTATATTCAAGTTTAGGAGAAAACAGAATACTTG; listed as DNA, chemistry not given here; listed as Homo sapiens)”, the “ncRNA array expression, patient 2” value is given as −1.54; the “ncRNA array expression, patient 3” value was −1.638; the “ncRNA array expression, patient 4” value was −1.747; the “ncRNA array expression, patient 5” value is given as −1.565. Also, the “ncRNA array expression, patient 6” value is reported as −1.135; the “ncRNA array expression, patient 7” value is reported as −1.9789; the “ncRNA array expression, patient 8” value is listed as −1.065; the “ncRNA array expression, patient 9” value was −2.029. The “ncRNA array expression, patient 10” value is −1.191; the “ncRNA array expression, patient 19” value is on record as −1.029; the “ncRNA array expression, patient 20” value was −1.812; the “ncRNA array expression, patient 21” value is given as −2.321. The “ncRNA array expression, patient 22” value was −1.439; the “ncRNA array expression, patient 23” value is listed as −1.275; the “ncRNA array expression, patient 24” value was −1.478; the “ncRNA array expression, patient 25” value is −2.11. Moreover, the “ncRNA array expression, patient 26” value is −2.186; the “ncRNA array expression, patient 27” value is listed as −2.019; the “ncRNA array expression, patient 28” value is given as −2.043; the “ncRNA array expression, patient 29” value was −2.155. The “ncRNA array expression, patient 30” value was −0.5021.

For the substance “SEQ ID NO 35 (GTTTCCATTGAAGAATATTACGCTCGGGGACAAGCCAGGTGCACGACCAAAAATTTAAAA; DNA, backbone and methylation of C not given here; listed as Homo sapiens)”, the “ncRNA array expression, patient 2” value came to 1.513; the “ncRNA array expression, patient 3” value worked out at 3.848; the “ncRNA array expression, patient 4” value amounted to 3.278; the “ncRNA array expression, patient 5” value turned out to be 2.521. The “ncRNA array expression, patient 6” value is 2.07; the “ncRNA array expression, patient 7” value was found to be 3.025; the “ncRNA array expression, patient 8” value amounted to 2.14; the “ncRNA array expression, patient 9” value is −0.1931. In addition, the “ncRNA array expression, patient 10” value worked out at 3.606; the “ncRNA array expression, patient 19” value worked out at 0.9237; the “ncRNA array expression, patient 20” value is given as 2.507; the “ncRNA array expression, patient 21” value was found to be 2.618. Besides, the “ncRNA array expression, patient 22” value turned out to be 0.8167; the “ncRNA array expression, patient 23” value stood at 2.729; the “ncRNA array expression, patient 24” value is −2.783; the “ncRNA array expression, patient 25” value was 1.774. In addition, the “ncRNA array expression, patient 26” value is 3.301; the “ncRNA array expression, patient 27” value is 3.86; the “ncRNA array expression, patient 28” value amounted to 4.108; the “ncRNA array expression, patient 29” value is given as 3.127. Further, the “ncRNA array expression, patient 30” value is reported as −0.8323.
